Experiments:
Type in all cases: cell-based, human
PC-3 = assay: NCI growth inhibition, PC-3; conditions: PC-3 (Prostate)
DU-145 = assay: NCI growth inhibition, DU-145; conditions: DU-145 (Prostate)
OVCAR-8 = assay: NCI growth inhibition, OVCAR-8; conditions: OVCAR-8 (Ovarian)
SW-620 = assay: NCI growth inhibition, SW-620; conditions: SW-620 (Colon)
MDA-MB-231/ATCC = assay: NCI growth inhibition, MDA-MB-231/ATCC; conditions: MDA-MB-231/ATCC (Breast)
HCC-2998 = assay: NCI growth inhibition, HCC-2998; conditions: HCC-2998 (Colon)
HL-60 (TB) = assay: NCI growth inhibition, HL-60 (TB); conditions: HL-60(TB) (Leukemia)
IGROV1 = assay: NCI growth inhibition, IGROV1; conditions: IGROV1 (Ovarian)
MCF7 = assay: NCI growth inhibition, MCF7; conditions: MCF7 (Breast)
SK-MEL-5 = assay: NCI growth inhibition, SK-MEL-5; conditions: SK-MEL-5 (Melanoma)
SK-OV-3 = assay: NCI growth inhibition, SK-OV-3; conditions: SK-OV-3 (Ovarian)
U251 = assay: NCI growth inhibition, U251; conditions: U251 (CNS)
CCRF-CEM = assay: NCI growth inhibition, CCRF-CEM; conditions: CCRF-CEM (Leukemia)
T-47D = assay: NCI growth inhibition, T-47D; conditions: T-47D (Breast)

## CC(=O)N[C@H]1CC[C@H](Nc2nc(NCc3ccc(-c4ccccc4)nc3)c3ncn(C(C)C)c3n2)CC1 [Compound 87]
PC-3
  GI50: 18 nM
DU-145
  GI50: 220 nM
OVCAR-8
  GI50: 33 nM
SW-620
  GI50: < 10 nM
MDA-MB-231/ATCC
  GI50: < 10 nM
HCC-2998
  GI50: < 10 nM
HL-60 (TB)
  GI50: < 10 nM
IGROV1
  GI50: 52 nM
MCF7
  GI50: 40 nM
SK-MEL-5
  GI50: 28 nM
SK-OV-3
  GI50: 350 nM
U251
  GI50: 28 nM
CCRF-CEM
  GI50: < 10 nM
T-47D
  GI50: 48 nM

From patent publication US6667311B2, “Nitrogen substituted biaryl purine derivatives as potent antiproliferative agents” (Albany Molecular Research, Inc., priority 2001, dated 2003)
